In patent US11780845B2 (Relay Therapeutics, Inc., priority 2019, dated 2023) one finds IC50 data, which are given here for 36 compounds.

One assay addresses FGFR2 (Homo sapiens (Human), UniProt P21802). In words: FGFR2 Biochemical Caliper Assay. The protocol: Compounds of the present invention were also tested in a FGFR2 Biochemical Caliper Assay. Compounds were prepared in 10 mM DMSO solution and serially diluted into 11 concentrations by 3-fold dilution. […] 5 uL of ATP solution (100 uM) was added to start the reaction and the plate was incubated for 90 minutes, then 70 uL of stopping buffer (0.5M EDTA) was added to terminate the reaction. Each well was analyzed using EZ reader.

Another assay deals with SNU16 cells. The experiment in a line: SNU16 Cancer Cell Line Proliferation Assay. The assay is classed as cell-based. The note with it: Homo sapiens; SNU-16 cells. In a few lines: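 Proliferation read-out: CellTiter Glo chemiluminescence after 96 h compound exposure. Test compounds, serially diluted 3-fold over 11 points from a 10 mM DMSO stock, were added to SNU16 cells plated 24 h earlier at 37 degrees.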

Chain of FGFR2 (P21802 22-821): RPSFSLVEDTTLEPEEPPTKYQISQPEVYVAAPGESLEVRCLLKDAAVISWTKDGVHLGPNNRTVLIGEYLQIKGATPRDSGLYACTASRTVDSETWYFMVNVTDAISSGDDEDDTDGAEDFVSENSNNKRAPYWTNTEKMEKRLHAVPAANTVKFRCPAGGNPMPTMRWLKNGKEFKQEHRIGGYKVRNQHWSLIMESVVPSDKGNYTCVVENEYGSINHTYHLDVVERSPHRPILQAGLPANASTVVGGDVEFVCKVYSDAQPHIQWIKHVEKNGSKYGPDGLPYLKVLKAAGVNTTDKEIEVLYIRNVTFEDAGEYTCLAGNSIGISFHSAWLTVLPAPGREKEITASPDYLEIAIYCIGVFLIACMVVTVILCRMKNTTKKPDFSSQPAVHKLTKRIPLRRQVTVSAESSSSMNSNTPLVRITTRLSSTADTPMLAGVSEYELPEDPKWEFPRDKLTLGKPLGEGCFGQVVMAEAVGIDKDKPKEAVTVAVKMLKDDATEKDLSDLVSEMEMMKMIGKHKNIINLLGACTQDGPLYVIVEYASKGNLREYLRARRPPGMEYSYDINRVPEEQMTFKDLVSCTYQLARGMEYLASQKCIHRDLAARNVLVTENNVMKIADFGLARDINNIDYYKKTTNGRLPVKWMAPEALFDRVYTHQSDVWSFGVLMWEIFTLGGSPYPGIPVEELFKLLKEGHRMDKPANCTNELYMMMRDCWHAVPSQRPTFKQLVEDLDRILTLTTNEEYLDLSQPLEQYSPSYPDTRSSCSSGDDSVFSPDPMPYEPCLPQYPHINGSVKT

As to `C=CC(=O)Nc1ccc(-c2c(C3CCC(C(=O)NC)CC3)c3c(N)ncnc3n2C)cc1` (stereo not drawn) [Example 302], the half-inhibitory concentration (IC50) lay within 1000 to 100000 nM at FGFR2 and 250 to 1000 nM in the assay with SNU16 cells.
The matching figures for `C=C(C)C(=O)Nc1ccc(-c2c(-c3ccc(Oc4ccc(OC)c(F)n4)cc3)c3c(N)ncnc3n2C)cc1` [Example 117]: 250 to 1000 nM and 100 to 250 nM.
For `C=CC(=O)N1CCC(c2c(-c3ccc(C(=O)C4CC4)cc3)c3c(N)ncnc3n2C)C1` (stereo not drawn) [Example 761], in that order: 100 to 250 nM and 100 to 250 nM.
With `C=CC(=O)N1CC[C@H](c2[nH]c3ncnc(N)c3c2-c2ccc(Oc3cccc(C)n3)cc2)C1` (single isomer, unassigned) [Example 754], the IC50 against FGFR2 is 250 to 1000 nM; with SNU16 cells it was 100 to 250 nM.
As for `C=C(C)C(=O)Nc1ccc(-c2c(-c3ccc(C(=O)N(C)Cc4nnc(C)o4)cc3)c3c(N)ncnc3n2C)cc1` [Example 374], the IC50 lay within 1000 to 100000 nM against FGFR2 and 250 to 1000 nM with SNU16 cells.
On to `C=CC(=O)N1CC=C(c2c(-c3ccc(Oc4ccccn4)c(OC)c3)c3c(N)ncnc3n2C)CC1` [Example 676], for which the values for the half-inhibitory concentration (IC50) on FGFR2 and in the assay on SNU16 cells were below 100 nM and at most 100 nM, respectively.
For `C=CC(=O)N1CCC(c2c(-c3ccc(N(C)C(C)=O)cc3)c3c(N)ncnc3n2C)C1` (stereo not drawn) [Example 720], the IC50 against FGFR2 and in the assay on SNU16 cells was 1000 to 100000 nM each time.
Regarding `C=CC(=O)Nc1ccc(-c2c(-c3ccc(Oc4ncc(NC)cn4)c(OC)c3)c3c(N)ncnc3n2C)cc1` [Example 98], the IC50 was below 100 nM against FGFR2 and at most 100 nM with SNU16 cells.
The matching figures for `C=CC(=O)N1CCC(n2cc(-c3c(-c4ccc(Oc5cccc(C)c5)c(OC)c4)c4c(N)ncnc4n3C)cn2)CC1` [Example 672]: 100 to 250 nM and 250 to 1000 nM.
`C=CC(=O)N1CC[C@@H](c2[nH]c3ncnc(N)c3c2-c2ccc(Oc3cccc(C)n3)cc2)C1` (single isomer, unassigned) [Example 752]: the IC50 is below 100 nM against FGFR2 and at most 100 nM with SNU16 cells.
On to `Cn1c(-c2ccc(NC(=O)CCl)cc2)c(-c2ccc(C(=O)N3CCCC3)cc2)c2c(N)ncnc21` [Example 558], for which the IC50 on FGFR2 was below 100 nM; in the assay on SNU16 cells, at most 100 nM.
For `C/C(=C\CN(C)C)C(=O)N1CCC(n2cc(-c3c(-c4ccc(Oc5cccc(C)n5)cc4)c4c(N)ncnc4n3C)cn2)CC1` [Example 655], in that order: 250 to 1000 nM and 1000 to 100000 nM.
As to `C=CC(=O)N1CCC(c2c(-c3ccc(-c4noc(C)n4)cc3)c3c(N)ncnc3n2C)C1` (stereo not drawn) [Example 767], the IC50 at FGFR2 lay in the range of 250 to 1000 nM; with SNU16 cells, 100 to 250 nM.
In the case of `C=C(C)C(=O)Nc1ccc(-c2c(C3=CC[C@@H](C(=O)N4CC5CC5C4)CC3)c3c(N)ncnc3n2C)cc1` (single isomer, unassigned) [Example 592], the IC50 is below 100 nM against FGFR2 and at most 100 nM in the assay on SNU16 cells.
For `C=C(C)C(=O)Nc1ccc(-c2c(-c3ccc(C(=O)N[C@@H]4CCOC4)cc3)c3c(N)ncnc3n2C)cc1` [Example 300], in that order: below 100 nM and at most 100 nM.
For the compound `C=C(C)C(=O)Nc1ccc(-c2c(-c3ccc(Oc4nccc(C)n4)c(F)c3)c3c(N)ncnc3n2C2CCCO2)cc1` (stereo not drawn) [Example 524], the IC50 on FGFR2 is below 100 nM; with SNU16 cells it was at most 100 nM.
On to `C=C(C)C(=O)Nc1ccc(-c2c(-c3ccc(Oc4nccc(CO)n4)c(F)c3)c3c(N)ncnc3n2C)cc1` [Example 498], for which the IC50 against FGFR2 was below 100 nM; in the assay on SNU16 cells, at most 100 nM.
The matching figures for `Cc1cccc(Oc2ccc(-c3c(-c4cnn(C5CCN(C(=O)/C=C/CN(C)C)CC5)c4)n(C)c4ncnc(N)c34)cc2)n1` [Example 621]: below 100 nM and at most 100 nM.
The matching figures for `C=C(C)C(=O)Nc1ccc(-c2c(-c3ccc(Oc4nccc(C)n4)c(F)c3F)c3c(N)ncnc3n2C)cc1` [Example 552]: below 100 nM and at most 100 nM.
For `C=CC(=O)N1CC[C@@H](c2c(-c3ccc(Oc4cccc(C)n4)cc3)c3c(N)ncnc3n2C)C1` (single isomer, unassigned) [Example 711], in that order: below 100 nM and at most 100 nM.
For `C=C(C)C(=O)Nc1ccc(-c2c(-c3ccc(C(=O)NCC4CCC4)nc3)c3c(N)ncnc3n2C)cc1` [Example 399], the 50% inhibitory concentration (IC50) on FGFR2 was 100 to 250 nM; with SNU16 cells it was at most 100 nM.
Turning to `C=C(C)C(=O)Nc1ccc(-c2c(-c3ccc(Oc4nccc(C)n4)c(F)c3)c3c(N)ncnc3n2[C@H]2CCOC2)cc1` (single isomer, unassigned) [Example 538], the half-maximal inhibitory concentration (IC50) against FGFR2 was below 100 nM; in the assay with SNU16 cells it was at most 100 nM.
The matching figures for `C=CC(=O)N1CCC(c2c(-c3ccc(Oc4ncccn4)c(OC)c3)c3c(N)ncnc3n2C)C1` (stereo not drawn) [Example 687]: 1000 to 100000 nM and 1000 to 100000 nM.
The matching figures for `C=C(C)C(=O)Nc1ccc(-c2c(-c3ccc(C(=O)NCC4(CO)CC4)cc3)c3c(N)ncnc3n2C)cc1` [Example 372]: below 100 nM and 250 to 1000 nM.
For `C=C(C)C(=O)Nc1ccc(-c2c(-c3ccc(Oc4nccc(Cl)n4)c(F)c3)c3c(N)ncnc3n2C)cc1` [Example 530], in that order: below 100 nM and at most 100 nM.
For the compound `C=C(C)C(=O)Nc1ccc(-c2c(-c3ccc(C(=O)N4CCC5CC54)cc3)c3c(N)ncnc3n2C)cc1` (stereo not drawn) [Example 229], the IC50 against FGFR2 is below 100 nM; with SNU16 cells it was at most 100 nM.
For `C=C(C)C(=O)Nc1ccc(-c2c(-c3ccc(C(=O)N(C)C)cc3)c3c(N)ncnc3n2C)cc1` [Example 152], in that order: 250 to 1000 nM and 250 to 1000 nM.
As to `C=C(C)C(=O)Nc1ccc(-c2c(-c3ccc(C(=O)N4CC5(CCCC5)C4)cc3)c3c(N)ncnc3n2C)cc1` [Example 241], the IC50 at FGFR2 fell in the range of 1000 to 100000 nM; in the assay on SNU16 cells, 250 to 1000 nM.
For `C=C(C)C(=O)Nc1ccc(-c2c(-c3c(F)cc(Oc4nccc(C)n4)cc3F)c3c(N)ncnc3n2C)cc1` [Example 570], in that order: below 100 nM and at most 100 nM.
In the case of `C=CC(=O)N1CCC(c2c(-c3ccc(Oc4cccc(C)n4)cc3)c3c(N)ncnc3n2C)C1` (stereo not drawn) [Example 645], the IC50 at FGFR2 was below 100 nM; with SNU16 cells, at most 100 nM.
The matching figures for `C=C(C)C(=O)Nc1ccc(-c2c(-c3ccc(Oc4ccnc(C)n4)c(Cl)c3)c3c(N)ncnc3n2C)cc1` [Example 506]: 250 to 1000 nM and 250 to 1000 nM.
Take `C=CC(=O)N1CCC(c2c(-c3ccc(OCCOC)cc3)c3c(N)ncnc3n2C)C1` (stereo not drawn) [Example 717]: the IC50 at FGFR2 was 1000 to 100000 nM; with SNU16 cells, 250 to 1000 nM.
For `Cc1cccc(Oc2ccc(-c3c(-c4ccc(NC#N)cc4)n(C)c4ncnc(N)c34)cc2)n1` [Example 476], in that order: below 100 nM and at most 100 nM.
The matching figures for `C=C(C)C(=O)Nc1ccc(-c2c(-c3ccc(C(=O)N4CCCC4)cc3)c3c(N)ncnc3n2C)c(OC)c1` [Example 433]: below 100 nM and at most 100 nM.
Take `C=CC(=O)Nc1ccc(-c2c(-c3ccc(Oc4ncccn4)cc3)c3c(N)ncnc3n2C)cc1` [Example 54]: the IC50 on FGFR2 was below 100 nM; in the assay on SNU16 cells, at most 100 nM.
As for `C=C(C)C(=O)Nc1ccc(-c2c(-c3ccc(C(=O)NCc4ccn(C)n4)cc3)c3c(N)ncnc3n2C)cc1` [Example 383], the figures for the IC50 against FGFR2 and in the assay with SNU16 cells were 1000 to 100000 nM and 250 to 1000 nM, respectively.

One may read the IC50 as the point on the concentration scale where inhibition reaches its midpoint. Read a low IC50 as higher potency.
